Results published in PubChem BioAssay (NCI).
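Each compound was tested at five concentrations against cells in 96-well plates for 48 hours. GI50 is the concentration that inhibits growth by half. TGI: total growth inhibition.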

Columns and labels:
Experiment in all cases: NCI anticancer screen, dose series, 48 h
HOP-62 NSCLC = tested on: HOP-62 NSCLC
HS 578T breast = tested on: HS 578T breast
HT29 colon = tested on: HT29 colon
UACC-62 melanoma = tested on: UACC-62 melanoma
RXF 393 renal = tested on: RXF 393 renal
CAKI-1 renal = tested on: CAKI-1 renal
SN12C renal = tested on: SN12C renal
NCI-H226 lung = tested on: NCI-H226 lung
NCI-H522 lung = tested on: NCI-H522 lung
SK-MEL-28 melanoma = tested on: SK-MEL-28 melanoma
DU-145 prostate = tested on: DU-145 prostate
NCI-H23 lung = tested on: NCI-H23 lung
OVCAR-8 ovarian = tested on: OVCAR-8 ovarian
NCI/ADR-RES ovarian = tested on: NCI/ADR-RES ovarian
EKVX NSCLC = tested on: EKVX NSCLC
HCT-15 colon = tested on: HCT-15 colon
OVCAR-4 ovarian = tested on: OVCAR-4 ovarian
KM12 colon = tested on: KM12 colon
SNB-19 CNS = tested on: SNB-19 CNS
OVCAR-3 ovarian = tested on: OVCAR-3 ovarian
T-47D breast = tested on: T-47D breast
SK-OV-3 ovarian = tested on: SK-OV-3 ovarian
UACC-257 melanoma = tested on: UACC-257 melanoma
HCC-2998 colon = tested on: HCC-2998 colon
LOX IMVI melanoma = tested on: LOX IMVI melanoma
MDA-MB-435 = tested on: MDA-MB-435
HL-60(TB) leukemia = tested on: HL-60(TB) leukemia
RPMI-8226 leukemia = tested on: RPMI-8226 leukemia
SF-268 CNS = tested on: SF-268 CNS
U251 CNS = tested on: U251 CNS
SF-539 CNS = tested on: SF-539 CNS
HCT-116 colon = tested on: HCT-116 colon
SK-MEL-2 melanoma = tested on: SK-MEL-2 melanoma
MCF7 breast = tested on: MCF7 breast
786-0 renal = tested on: 786-0 renal
BT-549 breast = tested on: BT-549 breast
SR leukemia = tested on: SR leukemia
A549 NSCLC = tested on: A549 NSCLC
M14 melanoma = tested on: M14 melanoma
A498 renal = tested on: A498 renal
MOLT-4 leukemia = tested on: MOLT-4 leukemia
NCI-H460 lung = tested on: NCI-H460 lung
PC-3 prostate = tested on: PC-3 prostate
ACHN renal = tested on: ACHN renal
OVCAR-5 ovarian = tested on: OVCAR-5 ovarian
SNB-75 CNS = tested on: SNB-75 CNS
SW-620 colon = tested on: SW-620 colon
K-562 leukemia = tested on: K-562 leukemia
IGROV1 ovarian = tested on: IGROV1 ovarian
CCRF-CEM leukemia = tested on: CCRF-CEM leukemia
MDA-MB-231 breast = tested on: MDA-MB-231 breast
UO-31 renal = tested on: UO-31 renal
SF-295 CNS = tested on: SF-295 CNS
MALME-3M melanoma = tested on: MALME-3M melanoma
TK-10 renal = tested on: TK-10 renal
HOP-92 NSCLC = tested on: HOP-92 NSCLC
COLO 205 colon = tested on: COLO 205 colon
SK-MEL-5 melanoma = tested on: SK-MEL-5 melanoma

SMILES: CCCC(=O)NC(c1ccc(N(CC)CC)cc1)c1cc(C)c2cccnc2c1O (stereo not drawn)
- GI50 (HOP-62 NSCLC): 511 nM
- TGI (HOP-62 NSCLC): > 100000 nM
- GI50 (HS 578T breast): 358 nM
- TGI (HS 578T breast): > 100000 nM
- GI50 (HT29 colon): 492 nM
- TGI (HT29 colon): > 100000 nM
- GI50 (UACC-62 melanoma): 347 nM
- TGI (UACC-62 melanoma): 1390 nM
- GI50 (RXF 393 renal): 1450 nM
- TGI (RXF 393 renal): > 26900 nM
- GI50 (CAKI-1 renal): 381 nM
- GI50 (SN12C renal): 828 nM
- TGI (SN12C renal): > 100000 nM
- GI50 (NCI-H226 lung): 513 nM
- TGI (NCI-H226 lung): 4260 nM
- GI50 (NCI-H522 lung): 319 nM
- GI50 (SK-MEL-28 melanoma): 561 nM
- TGI (SK-MEL-28 melanoma): > 100000 nM
- GI50 (DU-145 prostate): 710 nM
- TGI (DU-145 prostate): > 100000 nM
- GI50 (NCI-H23 lung): 462 nM
- TGI (NCI-H23 lung): > 100000 nM
- GI50 (OVCAR-8 ovarian): 381 nM
- TGI (OVCAR-8 ovarian): > 100000 nM
- GI50 (NCI/ADR-RES ovarian): 366 nM
- TGI (NCI/ADR-RES ovarian): > 100000 nM
- GI50 (EKVX NSCLC): 313 nM
- TGI (EKVX NSCLC): 5040 nM
- GI50 (HCT-15 colon): 323 nM
- TGI (HCT-15 colon): > 100000 nM
- GI50 (OVCAR-4 ovarian): 394 nM
- TGI (OVCAR-4 ovarian): > 100000 nM
- GI50 (KM12 colon): 454 nM
- TGI (KM12 colon): > 100000 nM
- GI50 (SNB-19 CNS): 464 nM
- TGI (SNB-19 CNS): > 100000 nM
- GI50 (OVCAR-3 ovarian): 374 nM
- TGI (OVCAR-3 ovarian): > 100000 nM
- GI50 (T-47D breast): 675 nM
- TGI (T-47D breast): > 100000 nM
- GI50 (SK-OV-3 ovarian): 635 nM
- TGI (SK-OV-3 ovarian): > 100000 nM
- GI50 (UACC-257 melanoma): 834 nM
- TGI (UACC-257 melanoma): > 24600 nM
- GI50 (HCC-2998 colon): 570 nM
- TGI (HCC-2998 colon): > 100000 nM
- GI50 (LOX IMVI melanoma): 496 nM
- TGI (LOX IMVI melanoma): > 100000 nM
- GI50 (MDA-MB-435): 409 nM
- TGI (MDA-MB-435): > 48600 nM
- GI50 (HL-60(TB) leukemia): 331 nM
- TGI (HL-60(TB) leukemia): 4850 nM
- GI50 (RPMI-8226 leukemia): 520 nM
- TGI (RPMI-8226 leukemia): > 100000 nM
- GI50 (SF-268 CNS): 438 nM
- TGI (SF-268 CNS): 32600 nM
- GI50 (U251 CNS): 386 nM
- TGI (U251 CNS): > 100000 nM
- GI50 (SF-539 CNS): 462 nM
- TGI (SF-539 CNS): 4560 nM
- GI50 (HCT-116 colon): 381 nM
- TGI (HCT-116 colon): > 100000 nM
- GI50 (SK-MEL-2 melanoma): 399 nM
- TGI (SK-MEL-2 melanoma): > 42000 nM
- GI50 (MCF7 breast): 303 nM
- TGI (MCF7 breast): > 100000 nM
- GI50 (786-0 renal): 763 nM
- TGI (786-0 renal): > 38500 nM
- GI50 (BT-549 breast): 1040 nM
- TGI (BT-549 breast): > 59200 nM
- GI50 (SR leukemia): 388 nM
- TGI (SR leukemia): > 54400 nM
- GI50 (A549 NSCLC): 737 nM
- TGI (A549 NSCLC): > 100000 nM
- GI50 (M14 melanoma): 462 nM
- TGI (M14 melanoma): 5120 nM
- GI50 (A498 renal): > 100000 nM
- TGI (A498 renal): > 100000 nM
- GI50 (MOLT-4 leukemia): 397 nM
- TGI (MOLT-4 leukemia): > 100000 nM
- GI50 (NCI-H460 lung): 247 nM
- GI50 (PC-3 prostate): 477 nM
- TGI (PC-3 prostate): > 100000 nM
- GI50 (ACHN renal): 422 nM
- TGI (ACHN renal): > 24300 nM
- GI50 (OVCAR-5 ovarian): 791 nM
- TGI (OVCAR-5 ovarian): > 100000 nM
- GI50 (SNB-75 CNS): 199 nM
- TGI (SNB-75 CNS): 1800 nM
- GI50 (SW-620 colon): 522 nM
- TGI (SW-620 colon): > 100000 nM
- GI50 (K-562 leukemia): 336 nM
- TGI (K-562 leukemia): > 100000 nM
- GI50 (IGROV1 ovarian): 439 nM
- TGI (IGROV1 ovarian): 14600 nM
- GI50 (CCRF-CEM leukemia): 407 nM
- TGI (CCRF-CEM leukemia): > 100000 nM
- GI50 (MDA-MB-231 breast): 539 nM
- TGI (MDA-MB-231 breast): > 100000 nM
- GI50 (UO-31 renal): 302 nM
- TGI (UO-31 renal): 5670 nM
- GI50 (SF-295 CNS): 352 nM
- TGI (SF-295 CNS): > 100000 nM
- GI50 (MALME-3M melanoma): 1450 nM
- TGI (MALME-3M melanoma): > 87300 nM
- GI50 (TK-10 renal): 489 nM
- TGI (TK-10 renal): > 100000 nM
- GI50 (HOP-92 NSCLC): 306 nM
- TGI (HOP-92 NSCLC): > 100000 nM
- GI50 (COLO 205 colon): 398 nM
- TGI (COLO 205 colon): > 100000 nM
- GI50 (SK-MEL-5 melanoma): 639 nM
- TGI (SK-MEL-5 melanoma): 5530 nM
